According to PubChem BioAssay (NCI):
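These data come from cells grown in 96-well plates and exposed to compound for 48 hours at five concentrations. Definition used: TGI = concentration required for complete inhibition of growth.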

Key:
Assay in all cases: NCI tumour cell line growth inhibition, 48 h
[1] = tested on: 786-0 renal
[2] = tested on: A498 renal
[3] = tested on: A549 NSCLC
[4] = tested on: ACHN renal
[5] = tested on: CAKI-1 renal
[6] = tested on: CCRF-CEM leukemia
[7] = tested on: COLO 205 colon
[8] = tested on: DU-145 prostate
[9] = tested on: EKVX NSCLC
[10] = tested on: HCC-2998 colon
[11] = tested on: HCT-116 colon
[12] = tested on: HCT-15 colon
[13] = tested on: HL-60(TB) leukemia
[14] = tested on: HOP-62 NSCLC
[15] = tested on: HOP-92 NSCLC
[16] = tested on: HS 578T breast
[17] = tested on: HT29 colon
[18] = tested on: IGROV1 ovarian
[19] = tested on: K-562 leukemia
[20] = tested on: KM12 colon
[21] = tested on: LOX IMVI melanoma
[22] = tested on: MALME-3M melanoma
[23] = tested on: MDA-MB-231 breast
[24] = tested on: MDA-MB-435
[25] = tested on: MDA-N
[26] = tested on: MOLT-4 leukemia
[27] = tested on: NCI-H226 lung
[28] = tested on: NCI-H23 lung
[29] = tested on: NCI-H460 lung
[30] = tested on: NCI-H522 lung
[31] = tested on: NCI/ADR-RES ovarian
[32] = tested on: OVCAR-4 ovarian
[33] = tested on: OVCAR-5 ovarian
[34] = tested on: OVCAR-8 ovarian
[35] = tested on: PC-3 prostate
[36] = tested on: RPMI-8226 leukemia
[37] = tested on: RXF 393 renal
[38] = tested on: SF-268 CNS
[39] = tested on: SF-295 CNS
[40] = tested on: SF-539 CNS
[41] = tested on: SK-MEL-2 melanoma
[42] = tested on: SK-MEL-28 melanoma
[43] = tested on: SK-MEL-5 melanoma
[44] = tested on: SK-OV-3 ovarian
[45] = tested on: SN12C renal
[46] = tested on: SNB-19 CNS
[47] = tested on: SNB-75 CNS
[48] = tested on: SR leukemia
[49] = tested on: SW-620 colon
[50] = tested on: T-47D breast
[51] = tested on: TK-10 renal
[52] = tested on: U251 CNS
[53] = tested on: UACC-257 melanoma
[54] = tested on: UACC-62 melanoma
[55] = tested on: UO-31 renal

`Cc1ccc(Nc2nc3c(=O)n(C)c(=O)n(C)c3nc2Nc2ccc(C)cc2)cc1` gave a TGI [1] of 18.7 µM, a TGI [2] of 40.2 µM and a TGI [3] of 52.9 µM. For the same compound, the TGI [4] was 11.8 µM, the TGI [5] was 30.4 µM and the TGI [6] was > 100 µM. For the same compound, the TGI [7] was 16 µM, the TGI [8] was > 100 µM and the TGI [9] was 30 µM. It also gave a TGI [10] of 35.1 µM, a TGI [11] of 22.1 µM and a TGI [12] of 11.8 µM. The TGI [13] was > 100 µM, the TGI [14] was 40.9 µM and the TGI [15] was 23.5 µM. For the same compound, the TGI [16] was 79.6 µM, the TGI [17] was 23.4 µM and the TGI [18] was 29.8 µM. For the same compound, the TGI [19] was > 100 µM, the TGI [20] was 34.5 µM and the TGI [21] was 22.6 µM. It also gave a TGI [22] of 28.6 µM, a TGI [23] of 27.1 µM and a TGI [24] of 25.1 µM. The TGI [25] was 24.2 µM, the TGI [26] was > 100 µM and the TGI [27] was > 100 µM. The TGI [28] was 31.2 µM, the TGI [29] was > 100 µM and the TGI [30] was 2.42 µM. The TGI [31] was 35.1 µM, the TGI [32] was 23.9 µM and the TGI [33] was 31.2 µM. For the same compound, the TGI [34] was 26.8 µM, the TGI [35] was 27.9 µM and the TGI [36] was > 100 µM. The TGI [37] was 23.2 µM, the TGI [38] was 32.2 µM and the TGI [39] was 45.7 µM. The TGI [40] was 26.7 µM, the TGI [41] was 33.5 µM and the TGI [42] was 30.8 µM. For the same compound, the TGI [43] was 31 µM, the TGI [44] was > 100 µM and the TGI [45] was 30.5 µM. The TGI [46] was > 100 µM, the TGI [47] was 35.2 µM and the TGI [48] was > 100 µM. It also gave a TGI [49] of 4.04 µM, a TGI [50] of 30.3 µM and a TGI [51] of 29.9 µM. The TGI [52] was 29.9 µM, the TGI [53] was 30.5 µM and the TGI [54] was 25 µM. The TGI [55] was 24.4 µM.
